Laboratory results as given in patent EP4467141A1, “PYRAZOLO-QUINOLINES AS SELECTIVE INHIBITORS OF GENOTOXIC STRESS-INDUCED IKK/NF- KB PATHWAYS FOR CANCER THERAPY” (Max-Delbrück-Centrum für Molekulare Medizin in der …, priority 2023, dated 2024).

What was measured:
Test in all cases: Kinase panel study
Format in all cases: biochemical
Conditions in all cases: read-out: Percentage of inhibition; for inhibition at 1 µM: 1000nM; for inhibition at 10 µM: 10000nM
[1] = target: T1, KIT T670I (Homo sapiens, UniProt P10721, T670I)
T1 construct: purchased Thermo Fisher Scientific
T1 sequence (P10721 26-976 T670I): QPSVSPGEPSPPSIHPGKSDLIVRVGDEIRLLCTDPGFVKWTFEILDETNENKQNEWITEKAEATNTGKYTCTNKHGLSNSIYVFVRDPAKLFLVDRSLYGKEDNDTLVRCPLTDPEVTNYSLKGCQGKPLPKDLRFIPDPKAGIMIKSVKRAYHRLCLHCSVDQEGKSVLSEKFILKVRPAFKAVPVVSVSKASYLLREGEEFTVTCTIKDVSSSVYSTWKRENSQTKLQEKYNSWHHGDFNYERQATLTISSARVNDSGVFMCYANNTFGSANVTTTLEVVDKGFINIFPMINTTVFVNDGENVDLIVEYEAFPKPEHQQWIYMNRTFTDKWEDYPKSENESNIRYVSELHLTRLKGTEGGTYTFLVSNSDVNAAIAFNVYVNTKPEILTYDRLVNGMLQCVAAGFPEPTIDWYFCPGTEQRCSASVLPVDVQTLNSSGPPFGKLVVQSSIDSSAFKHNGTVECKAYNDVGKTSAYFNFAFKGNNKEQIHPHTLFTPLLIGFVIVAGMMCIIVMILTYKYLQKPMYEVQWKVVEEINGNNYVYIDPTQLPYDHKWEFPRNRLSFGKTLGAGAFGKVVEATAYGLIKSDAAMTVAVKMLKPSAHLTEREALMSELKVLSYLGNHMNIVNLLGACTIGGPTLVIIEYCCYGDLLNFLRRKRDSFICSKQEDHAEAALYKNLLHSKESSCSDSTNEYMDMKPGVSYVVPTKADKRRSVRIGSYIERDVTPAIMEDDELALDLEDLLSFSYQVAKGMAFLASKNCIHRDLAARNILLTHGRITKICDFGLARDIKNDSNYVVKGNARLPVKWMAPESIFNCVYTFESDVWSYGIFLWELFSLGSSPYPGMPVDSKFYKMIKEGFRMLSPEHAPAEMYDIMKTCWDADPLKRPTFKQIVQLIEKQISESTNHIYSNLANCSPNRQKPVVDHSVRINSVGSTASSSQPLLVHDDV
Method in brief: (§1)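 ZLyte/Adapta biochemical kinase assays, standard operating procedures; % inhibition at 1 µM or 10 µM test compound; IC50 determined in panel.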

[2] = target: T2, EPHA2 (Homo sapiens, UniProt P29317)
T2 construct: purchased Thermo Fisher Scientific
T2 sequence (P29317 24-976): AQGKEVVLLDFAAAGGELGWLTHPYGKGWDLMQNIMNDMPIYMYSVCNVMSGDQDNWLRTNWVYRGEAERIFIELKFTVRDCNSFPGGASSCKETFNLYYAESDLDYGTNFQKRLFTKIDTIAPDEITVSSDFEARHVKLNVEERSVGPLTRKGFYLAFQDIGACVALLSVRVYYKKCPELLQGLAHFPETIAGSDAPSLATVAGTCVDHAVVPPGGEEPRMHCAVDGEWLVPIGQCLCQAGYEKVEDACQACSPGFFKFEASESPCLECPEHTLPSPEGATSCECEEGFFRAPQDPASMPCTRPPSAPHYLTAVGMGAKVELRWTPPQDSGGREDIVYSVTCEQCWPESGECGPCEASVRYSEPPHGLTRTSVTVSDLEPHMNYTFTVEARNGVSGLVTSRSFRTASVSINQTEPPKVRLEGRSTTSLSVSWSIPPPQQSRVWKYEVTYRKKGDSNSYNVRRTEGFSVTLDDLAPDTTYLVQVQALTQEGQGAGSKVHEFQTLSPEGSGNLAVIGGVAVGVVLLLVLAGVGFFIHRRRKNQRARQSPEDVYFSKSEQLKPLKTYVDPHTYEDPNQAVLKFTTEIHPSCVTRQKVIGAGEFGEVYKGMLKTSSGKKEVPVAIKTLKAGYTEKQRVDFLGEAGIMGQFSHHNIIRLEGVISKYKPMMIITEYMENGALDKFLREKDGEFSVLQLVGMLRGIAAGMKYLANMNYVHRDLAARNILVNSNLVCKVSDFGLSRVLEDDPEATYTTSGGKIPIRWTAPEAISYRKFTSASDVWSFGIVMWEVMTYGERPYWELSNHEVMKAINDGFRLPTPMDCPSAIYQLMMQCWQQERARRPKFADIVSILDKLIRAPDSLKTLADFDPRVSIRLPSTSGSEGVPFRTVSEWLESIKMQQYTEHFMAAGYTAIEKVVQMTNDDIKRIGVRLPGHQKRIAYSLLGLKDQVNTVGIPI
Method in brief: as §1

[3] = target: T3, STK22B (TSSK2) (Homo sapiens, UniProt Q96PF2)
T3 construct: purchased Thermo Fisher Scientific
T3 sequence (Q96PF2 1-358): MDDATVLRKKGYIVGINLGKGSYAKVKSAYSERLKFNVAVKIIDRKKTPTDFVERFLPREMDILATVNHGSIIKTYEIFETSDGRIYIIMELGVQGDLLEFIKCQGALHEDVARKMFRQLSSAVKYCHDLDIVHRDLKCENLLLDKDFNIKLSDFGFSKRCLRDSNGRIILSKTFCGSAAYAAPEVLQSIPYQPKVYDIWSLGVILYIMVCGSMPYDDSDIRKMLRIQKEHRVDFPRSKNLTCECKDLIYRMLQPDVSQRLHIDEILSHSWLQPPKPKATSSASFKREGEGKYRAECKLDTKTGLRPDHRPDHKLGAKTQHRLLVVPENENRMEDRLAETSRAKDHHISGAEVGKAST
Method in brief: as §1

[4] = target: T4, AMPKA2/B1/G1 (Homo sapiens, UniProt P54646)
T4 construct: purchased Thermo Fisher Scientific
Method in brief: as §1

[5] = target: T5, SYK (Homo sapiens, UniProt P43405)
T5 construct: purchased Thermo Fisher Scientific
Method in brief: as §1

[6] = target: T6, FGFR3 K650E (Homo sapiens, UniProt P22607, K650E)
T6 construct: purchased Thermo Fisher Scientific
T6 sequence (P22607 23-806 K650E): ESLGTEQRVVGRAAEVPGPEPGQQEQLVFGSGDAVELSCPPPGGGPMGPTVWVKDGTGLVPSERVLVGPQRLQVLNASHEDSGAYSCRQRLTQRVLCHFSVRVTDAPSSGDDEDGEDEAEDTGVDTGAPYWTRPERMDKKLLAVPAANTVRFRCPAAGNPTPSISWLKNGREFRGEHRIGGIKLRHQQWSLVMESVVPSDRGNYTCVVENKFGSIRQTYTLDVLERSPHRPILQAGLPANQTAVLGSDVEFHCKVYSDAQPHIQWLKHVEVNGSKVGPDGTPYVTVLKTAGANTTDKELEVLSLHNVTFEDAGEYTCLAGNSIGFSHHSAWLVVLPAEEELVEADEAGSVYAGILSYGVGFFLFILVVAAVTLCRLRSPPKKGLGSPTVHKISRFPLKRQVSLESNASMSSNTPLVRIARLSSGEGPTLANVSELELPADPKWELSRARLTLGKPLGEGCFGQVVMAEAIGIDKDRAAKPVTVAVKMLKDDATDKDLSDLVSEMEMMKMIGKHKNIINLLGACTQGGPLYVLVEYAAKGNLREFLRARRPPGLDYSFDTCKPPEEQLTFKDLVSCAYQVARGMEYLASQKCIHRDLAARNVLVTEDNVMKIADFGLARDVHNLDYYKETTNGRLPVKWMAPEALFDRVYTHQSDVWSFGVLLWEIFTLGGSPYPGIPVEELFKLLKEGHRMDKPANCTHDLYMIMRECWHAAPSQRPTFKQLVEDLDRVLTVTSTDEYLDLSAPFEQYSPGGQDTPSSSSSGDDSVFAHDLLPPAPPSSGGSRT
Method in brief: as §1

[7] = target: T7, FES (FPS) (Homo sapiens, UniProt P07332)
T7 construct: purchased Thermo Fisher Scientific
Method in brief: as §1

[8] = target: T8, CSNK1E (CK1 epsilon) (Homo sapiens, UniProt P49674)
T8 construct: purchased Thermo Fisher Scientific
Method in brief: as §1

[9] = target: T9, RET Y791F (Homo sapiens, UniProt P07949, Y791F)
T9 construct: purchased Thermo Fisher Scientific
T9 sequence (P07949 29-1114 Y791F): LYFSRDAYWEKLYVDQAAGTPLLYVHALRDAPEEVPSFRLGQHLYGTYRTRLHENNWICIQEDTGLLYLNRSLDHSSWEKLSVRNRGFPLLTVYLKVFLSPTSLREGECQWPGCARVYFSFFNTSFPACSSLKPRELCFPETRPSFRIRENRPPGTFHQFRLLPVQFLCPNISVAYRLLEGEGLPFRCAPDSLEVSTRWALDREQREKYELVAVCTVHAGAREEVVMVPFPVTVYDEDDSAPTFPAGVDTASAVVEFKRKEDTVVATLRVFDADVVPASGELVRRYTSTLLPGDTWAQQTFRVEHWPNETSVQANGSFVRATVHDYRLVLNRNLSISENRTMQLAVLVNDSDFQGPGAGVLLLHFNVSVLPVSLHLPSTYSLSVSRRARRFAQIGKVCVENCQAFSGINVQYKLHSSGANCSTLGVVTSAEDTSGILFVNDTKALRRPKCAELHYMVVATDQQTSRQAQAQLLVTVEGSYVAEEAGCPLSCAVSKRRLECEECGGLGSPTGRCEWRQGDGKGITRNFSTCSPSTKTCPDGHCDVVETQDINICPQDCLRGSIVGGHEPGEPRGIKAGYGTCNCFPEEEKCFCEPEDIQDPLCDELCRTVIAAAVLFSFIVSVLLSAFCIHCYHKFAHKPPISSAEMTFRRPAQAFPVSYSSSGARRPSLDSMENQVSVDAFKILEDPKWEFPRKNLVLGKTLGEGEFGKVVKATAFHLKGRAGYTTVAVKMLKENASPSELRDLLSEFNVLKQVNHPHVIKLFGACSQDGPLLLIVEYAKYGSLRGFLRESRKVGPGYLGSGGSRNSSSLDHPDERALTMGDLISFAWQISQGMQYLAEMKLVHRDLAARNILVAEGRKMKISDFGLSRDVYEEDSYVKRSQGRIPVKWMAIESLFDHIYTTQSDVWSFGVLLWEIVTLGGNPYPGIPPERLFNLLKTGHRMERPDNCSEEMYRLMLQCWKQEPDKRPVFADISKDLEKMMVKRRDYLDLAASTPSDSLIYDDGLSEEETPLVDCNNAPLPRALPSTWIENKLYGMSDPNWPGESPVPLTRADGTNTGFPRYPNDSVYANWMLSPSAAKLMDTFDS
Method in brief: as §1

[10] = target: T10, ABL1 (Homo sapiens, UniProt P00519)
T10 construct: purchased Thermo Fisher Scientific
T10 sequence (P00519 whole entry): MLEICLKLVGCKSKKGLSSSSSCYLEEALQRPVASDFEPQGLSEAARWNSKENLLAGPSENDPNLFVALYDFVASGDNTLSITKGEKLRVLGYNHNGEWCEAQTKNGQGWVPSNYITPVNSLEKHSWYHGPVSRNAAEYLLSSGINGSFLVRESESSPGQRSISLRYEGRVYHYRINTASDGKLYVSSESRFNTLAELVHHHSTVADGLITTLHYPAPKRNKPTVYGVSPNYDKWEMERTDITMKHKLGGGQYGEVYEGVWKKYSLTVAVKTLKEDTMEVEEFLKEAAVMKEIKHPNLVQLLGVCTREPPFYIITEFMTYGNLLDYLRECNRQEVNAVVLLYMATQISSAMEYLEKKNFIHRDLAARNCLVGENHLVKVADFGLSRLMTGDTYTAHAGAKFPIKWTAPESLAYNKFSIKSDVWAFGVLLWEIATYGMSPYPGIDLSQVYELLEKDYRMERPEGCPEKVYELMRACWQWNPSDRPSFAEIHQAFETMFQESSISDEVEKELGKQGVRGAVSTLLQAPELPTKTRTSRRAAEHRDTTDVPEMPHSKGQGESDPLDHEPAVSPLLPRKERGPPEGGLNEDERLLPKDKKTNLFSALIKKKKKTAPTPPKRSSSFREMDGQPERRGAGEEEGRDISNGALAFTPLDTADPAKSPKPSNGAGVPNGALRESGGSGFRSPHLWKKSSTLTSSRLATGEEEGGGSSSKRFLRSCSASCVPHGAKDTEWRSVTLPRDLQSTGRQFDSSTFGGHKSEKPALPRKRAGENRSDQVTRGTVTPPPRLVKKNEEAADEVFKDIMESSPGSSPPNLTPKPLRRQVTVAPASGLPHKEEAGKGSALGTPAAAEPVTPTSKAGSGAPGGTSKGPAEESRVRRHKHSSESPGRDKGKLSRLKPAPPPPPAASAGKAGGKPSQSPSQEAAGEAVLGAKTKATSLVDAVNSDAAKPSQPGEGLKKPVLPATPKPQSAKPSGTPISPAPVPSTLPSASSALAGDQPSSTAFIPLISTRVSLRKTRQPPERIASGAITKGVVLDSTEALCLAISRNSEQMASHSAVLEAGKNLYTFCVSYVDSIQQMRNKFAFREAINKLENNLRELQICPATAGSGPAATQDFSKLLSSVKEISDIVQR
Method in brief: as §1

[11] = target: T11, PI4KA (PI4K alpha) (Homo sapiens, UniProt P42356)
T11 construct: purchased Thermo Fisher Scientific
Method in brief: as §1

[12] = target: T12, CAMK2A (CaMKII alpha) (Homo sapiens, UniProt Q9UQM7)
T12 construct: purchased Thermo Fisher Scientific
Method in brief: as §1

[13] = target: T13, ADRBK2 (GRK3) (Homo sapiens, UniProt P35626)
T13 construct: purchased Thermo Fisher Scientific
T13 sequence (P35626 1-688): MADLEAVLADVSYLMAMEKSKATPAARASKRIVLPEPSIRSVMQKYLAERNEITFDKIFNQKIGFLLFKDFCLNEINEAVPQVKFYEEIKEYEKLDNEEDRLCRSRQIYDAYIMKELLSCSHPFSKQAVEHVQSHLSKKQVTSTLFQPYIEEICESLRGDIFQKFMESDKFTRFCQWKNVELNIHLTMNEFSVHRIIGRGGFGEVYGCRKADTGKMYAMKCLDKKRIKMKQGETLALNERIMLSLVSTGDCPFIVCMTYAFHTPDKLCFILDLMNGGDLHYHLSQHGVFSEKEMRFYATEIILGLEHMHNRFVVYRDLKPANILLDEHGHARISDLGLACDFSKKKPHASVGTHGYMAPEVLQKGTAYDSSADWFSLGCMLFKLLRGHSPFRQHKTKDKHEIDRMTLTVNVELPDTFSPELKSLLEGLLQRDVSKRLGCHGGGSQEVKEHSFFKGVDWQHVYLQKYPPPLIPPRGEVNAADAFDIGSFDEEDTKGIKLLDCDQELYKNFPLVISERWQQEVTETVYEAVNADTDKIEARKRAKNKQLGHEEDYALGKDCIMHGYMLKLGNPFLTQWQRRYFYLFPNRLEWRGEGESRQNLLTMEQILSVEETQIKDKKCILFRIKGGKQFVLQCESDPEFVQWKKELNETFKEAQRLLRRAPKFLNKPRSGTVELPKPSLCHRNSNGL
Method in brief: as §1

[14] = target: T14, CAMK2B (CaMKII beta) (Homo sapiens, UniProt Q13554)
T14 construct: purchased Thermo Fisher Scientific
Method in brief: as §1

Compound | inhibition at 1 µM [1] [%] | inhibition at 10 µM [1] [%] | inhibition at 1 µM [2] [%] | inhibition at 10 µM [2] [%] | inhibition at 1 µM [3] [%] | inhibition at 10 µM [3] [%] | inhibition at 1 µM [4] [%] | inhibition at 10 µM [4] [%] | inhibition at 1 µM [5] [%] | inhibition at 10 µM [5] [%] | inhibition at 1 µM [6] [%] | inhibition at 10 µM [6] [%] | inhibition at 1 µM [7] [%] | inhibition at 10 µM [7] [%] | inhibition at 1 µM [8] [%] | inhibition at 10 µM [8] [%] | inhibition at 1 µM [9] [%] | inhibition at 10 µM [9] [%] | inhibition at 1 µM [10] [%] | inhibition at 10 µM [10] [%] | further results
COc1ccc2c(c1OC)c(=O)n1c3ccc(O)cc3c3ccnc2c31 [MW01, 5-Hydroxy-10,11-dimethoxy-9H-benzo[c]indolo[3,2,1-ij][1,5]naphthyridin-9-one] | 1 | 13 | 6 | 14 | 11 | 20 | 8 | 32 | 16 | 37 | 6 | 16 | 0 | 15 | 6 | 32 | 17 | 32 | 15 | 27 | inhibition at 1 µM [11]: 13%; inhibition at 10 µM [11]: 23%; inhibition at 1 µM [12]: 12%; inhibition at 10 µM [12]: 39%; inhibition at 1 µM [13]: 0%; inhibition at 10 µM [13]: 5%; inhibition at 1 µM [14]: 9%; inhibition at 10 µM [14]: 37%
COc1ccc2cc3c(N)nn(C(=O)c4cccc(N(C)C)c4)c3nc2c1 [MW05, (3-Amino-7-methoxypyrazolo[3,4-b]quinolin-1-yl)-[3-(dimethylamino)phenyl]methanone] | -1 | -13 | 13 | -15 | 11 | 2 | 5 | 0 | 5 | 7 | 8 | -3 | 1 | -1 | 2 | 0 | 5 | 7 | 4 | 6 | inhibition at 1 µM [11]: 1%; inhibition at 10 µM [11]: -1%; inhibition at 1 µM [12]: 9%; inhibition at 10 µM [12]: 16%; inhibition at 1 µM [13]: 2%; inhibition at 10 µM [13]: -3%; inhibition at 1 µM [14]: 5%; inhibition at 10 µM [14]: 3%
